Inhibition and Activity data for 5 compounds are collected here from ChEMBL document CHEMBL3421587, “Discovery of novel small-molecule antagonists for GluK2” (Bioorg Med Chem Lett, 2015).

The source made the active and inactive calls. The calls are words filed in the database; no cut-off is given here.

Type in all cases: cell-based
Test [1] concerns the target Glutamate receptor ionotropic, kainate 2 (Homo sapiens) (UniProt Q13002). In words: Antagonist activity at GluK2 (unknown origin) transfected in HEK293 cells assessed as inhibition of L-glutamate-induced peak current responses at 1 mM compound added in background solution by electrophysiological analysis relative to control.
Test [2] has the same target. In words: Agonist activity at GluK2 (unknown origin) transfected in HEK293 cells assessed as current responses at 1 mM by electrophysiological analysis.
Test [3] has the same target. Description: Antagonist activity at GluK2 (unknown origin) transfected in HEK293 cells assessed as inhibition of L-glutamate-induced peak current response at 1 mM compound added in background and L-glutamate solution by electrophysiological analysis relative to control.

Glutamate receptor ionotropic, kainate 2 (Homo sapiens), sequence (Q13002 whole entry): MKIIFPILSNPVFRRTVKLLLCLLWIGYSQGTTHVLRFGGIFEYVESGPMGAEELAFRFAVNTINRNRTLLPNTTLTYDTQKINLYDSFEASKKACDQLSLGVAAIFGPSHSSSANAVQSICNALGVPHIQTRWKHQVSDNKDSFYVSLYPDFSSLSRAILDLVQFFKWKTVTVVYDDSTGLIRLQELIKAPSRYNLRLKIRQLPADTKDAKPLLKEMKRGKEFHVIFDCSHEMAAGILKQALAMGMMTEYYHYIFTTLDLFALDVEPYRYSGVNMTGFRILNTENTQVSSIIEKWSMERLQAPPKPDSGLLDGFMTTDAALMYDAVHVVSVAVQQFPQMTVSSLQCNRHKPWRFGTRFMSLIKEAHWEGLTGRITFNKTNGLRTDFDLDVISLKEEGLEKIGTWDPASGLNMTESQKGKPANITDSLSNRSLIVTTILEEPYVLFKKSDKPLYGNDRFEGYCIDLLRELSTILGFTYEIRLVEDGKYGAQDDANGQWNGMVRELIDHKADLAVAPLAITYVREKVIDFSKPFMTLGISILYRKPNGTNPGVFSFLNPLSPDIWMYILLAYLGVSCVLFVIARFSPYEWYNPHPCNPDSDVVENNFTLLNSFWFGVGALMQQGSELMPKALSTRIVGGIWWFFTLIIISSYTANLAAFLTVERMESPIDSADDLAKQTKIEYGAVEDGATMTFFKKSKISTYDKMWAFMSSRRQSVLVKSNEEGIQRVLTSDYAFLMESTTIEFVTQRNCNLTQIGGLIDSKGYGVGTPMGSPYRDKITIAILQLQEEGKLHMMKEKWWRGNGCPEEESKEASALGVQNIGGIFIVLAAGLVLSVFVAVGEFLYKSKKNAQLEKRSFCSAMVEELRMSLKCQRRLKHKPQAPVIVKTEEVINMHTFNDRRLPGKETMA

As usually defined, the inhibition is the percentage by which the read-out fell short of the control. Take `CC(C)C[C@@H](CC(=O)O)[C@H](N)C(=O)O`: in test [1], the inhibition result is “inactive”.
Regarding `CC[C@@H](CC(=O)O)[C@H](N)C(=O)O`, the inhibition turned out to be 46% in test [1] and 53% in test [3]. Moreover, in test [2], the result was inactive.
`N[C@H](C(=O)O)[C@H](CC(=O)O)c1ccccc1`: the inhibition entry in test [1] is “inactive”.
For `C[C@@H](CC(=O)O)[C@H](N)C(=O)O`, the inhibition in test [1] amounted to 38%. Further, the result in test [2] was inactive.
For the compound `CCC[C@@H](CC(=O)O)[C@H](N)C(=O)O`, in test [1], the inhibition amounted to 95%.
